Laboratory results: PMC11711195, “The non-nutritive sweetener rebaudioside a enhances phage infectivity” (Scientific Reports, 2025)

Target: T1, gp31 (Klebsiella phage KP32, UniProt D1L2W4)
T1 construct: gene 31; recombinant from bacterial expression, His-tag (and MBP) removed by TEV protease
T1 sequence (D1L2W4 1-192): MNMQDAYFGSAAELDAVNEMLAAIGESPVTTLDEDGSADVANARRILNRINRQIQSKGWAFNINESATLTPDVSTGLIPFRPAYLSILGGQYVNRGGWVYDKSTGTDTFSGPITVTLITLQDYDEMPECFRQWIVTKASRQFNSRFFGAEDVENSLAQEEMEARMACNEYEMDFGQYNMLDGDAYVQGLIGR
Assay: RedStarch hydrolysis, absorbance […] nm
Type: biochemical
Details: activator; RedStarch 2% w/v stock; 50 µL gp31 4.673 µM plus 50 µL rebA 14.019 µM; 20 °C, 72 h

For `C=C1C[C@@]23CC[C@H]4[C@@](C)(CCC[C@@]4(C)C(=O)O[C@@H]4O[C@H](CO)[C@@H](O)[C@H](O)[C@H]4O)[C@@H]2CC[C@]1(O[C@@H]1O[C@H](CO)[C@@H](O)[C@H](O[C@@H]2O[C@H](CO)[C@@H](O)[C@H](O)[C@H]2O)[C@H]1O[C@@H]1O[C@H](CO)[C@@H](O)[C@H](O)[C@H]1O)C3` [rebA], the increment of activity was 51.14%.
